ChEMBL document CHEMBL1133947, “Synthesis and biological properties of new 1beta-methylcarbapenems containing heteroaromatic thioether moiety” (Bioorg Med Chem Lett, 2001)
Values after ≈ are worked out from the molar mass of the structure shown.

What was measured:
Sus scrofa = species on record: Sus scrofa; test: DHP-I stability of compound relative to t1/2 of hydrolysis to meropenem; assay type: functional; design: scale not given: the % may be the effect or the level left
Klebsiella aerogenes = test: In vitro antibacterial activity against Klebsiella aerogenes 1522E; assay type: functional
Salmonella typhimurium = test: In vitro antibacterial activity against Salmonella Typhimurium; assay type: functional, Salmonella enterica subsp. enterica serovar Typhimurium; settings: Salmonella enterica
Escherichia coli [1] = test: In vitro antibacterial activity against Escherichia coli 078; assay type: functional
Streptococcus pyogenes = test: In vitro antibacterial activity against Streptococcus pyogenes 308A; assay type: functional
Staphylococcus aureus [2] = test: In vitro antibacterial activity against Staphylococcus aureus SG 511; assay type: functional
Pseudomonas aeruginosa [3] = test: In vitro antibacterial activity against Pseudomonas aeruginosa 1771M; assay type: functional
Escherichia coli [4] = test: In vitro antibacterial activity against Escherichia coli 1507E; assay type: functional
Staphylococcus aureus [5] = test: In vitro antibacterial activity against Staphylococcus aureus 503; assay type: functional
Pseudomonas aeruginosa [6] = test: In vitro antibacterial activity against Pseudomonas aeruginosa 9027; assay type: functional
Enterobacter cloacae = test: In vitro antibacterial activity against Enterobacter cloacae 1321E; assay type: functional
Staphylococcus aureus [7] = test: In vitro antibacterial activity against Staphylococcus aureus 285; assay type: functional
[8] = Area under curve of compound after iv administration of 20 mg/kg dose in rat; assay type: ADME, organism-based; design: dose 20 mg/kg, route intravenous; settings: in vivo
[9] = Half life of compound after iv administration of 20 mg/kg dose in rat; assay type: ADME, organism-based; design: dose 20 mg/kg, route intravenous; settings: in vivo
[10] = Clearance of compound after iv administration of 20 mg/kg dose in rat; assay type: ADME, organism-based; design: dose 20 mg/kg, route intravenous; settings: in vivo

SMILES | Stability (Sus scrofa) | MIC (Klebsiella aerogenes) | MIC (Salmonella typhimurium) | MIC (Escherichia coli [1]) | MIC (Streptococcus pyogenes) | MIC (Staphylococcus aureus [2]) | MIC (Pseudomonas aeruginosa [3]) | MIC (Escherichia coli [4]) | MIC (Staphylococcus aureus [5]) | MIC (Pseudomonas aeruginosa [6]) | MIC (Enterobacter cloacae) | MIC (Staphylococcus aureus [7]) | AUC [8] | half-life [9] | clearance [10]
C[C@@H](O)[C@H]1C(=O)N2C(C(=O)O)=C(S[C@@H]3CN[C@H](C(=O)N(C)C)C3)[C@H](C)[C@H]12 [MEROPENEM] | 100% | 0.049 µg/mL (≈ 0.128 µM) | 0.049 µg/mL (≈ 0.128 µM) | 0.025 µg/mL (≈ 0.0652 µM) | 0.013 µg/mL (≈ 0.0339 µM) | 0.195 µg/mL (≈ 0.509 µM) | 0.049 µg/mL (≈ 0.128 µM) | 0.025 µg/mL (≈ 0.0652 µM) | 0.098 µg/mL (≈ 0.256 µM) | 0.195 µg/mL (≈ 0.509 µM) | 0.025 µg/mL (≈ 0.0652 µM) | 0.195 µg/mL (≈ 0.509 µM) |  |  | 
C[C@@H](O)[C@H]1C(=O)N2C(C(=O)O)=C(S[C@@H]3CN[C@H](CSc4nncn4C)C3)[C@H](C)[C@H]12 | 93% | 0.098 µg/mL (≈ 0.223 µM) | 0.098 µg/mL (≈ 0.223 µM) | 0.025 µg/mL (≈ 0.0569 µM) | 0.013 µg/mL (≈ 0.0296 µM) | 0.049 µg/mL (≈ 0.111 µM) | 0.195 µg/mL (≈ 0.444 µM) | 0.049 µg/mL (≈ 0.111 µM) | 0.025 µg/mL (≈ 0.0569 µM) | 1.56 µg/mL (≈ 3.56 µM) | 0.049 µg/mL (≈ 0.111 µM) | 0.098 µg/mL (≈ 0.223 µM) |  |  | 
Cc1nnc(SC[C@@H]2C[C@H](SC3=C(C(=O)O)N4C(=O)[C@H]([C@@H](C)O)[C@H]4[C@H]3C)CN2)s1 | 108% | 0.025 µg/mL (≈ 0.0548 µM) | 0.025 µg/mL (≈ 0.0548 µM) | 0.007 µg/mL (≈ 0.0153 µM) | 0.004 µg/mL (≈ 0.00876 µM) | 0.025 µg/mL (≈ 0.0548 µM) | 0.195 µg/mL (≈ 0.427 µM) | 0.007 µg/mL (≈ 0.0153 µM) | 0.007 µg/mL (≈ 0.0153 µM) | 3.12 µg/mL (≈ 6.84 µM) | 0.013 µg/mL (≈ 0.0285 µM) | 0.025 µg/mL (≈ 0.0548 µM) |  |  | 
C[C@@H](O)[C@H]1C(=O)N2C(C(=O)O)=C(S[C@@H]3CN[C@H](CSc4ncccn4)C3)[C@H](C)[C@H]12 | 89% | 0.098 µg/mL (≈ 0.224 µM) | 0.098 µg/mL (≈ 0.224 µM) | 0.049 µg/mL (≈ 0.112 µM) | < 0.002 µg/mL | 0.025 µg/mL (≈ 0.0573 µM) | 0.391 µg/mL (≈ 0.896 µM) | 0.049 µg/mL (≈ 0.112 µM) | 0.025 µg/mL (≈ 0.0573 µM) | 3.12 µg/mL (≈ 7.16 µM) | 0.049 µg/mL (≈ 0.112 µM) | 0.049 µg/mL (≈ 0.112 µM) |  |  | 
C[C@@H](O)[C@H]1C(=O)N2C(C(=O)O)=C(S[C@@H]3CN[C@H](CSc4cnns4)C3)[C@H](C)[C@H]12 | 167% | 0.025 µg/mL (≈ 0.0565 µM) | 0.025 µg/mL (≈ 0.0565 µM) | 0.013 µg/mL (≈ 0.0294 µM) | 0.007 µg/mL (≈ 0.0158 µM) | 0.025 µg/mL (≈ 0.0565 µM) | 0.195 µg/mL (≈ 0.441 µM) | 0.013 µg/mL (≈ 0.0294 µM) | 0.013 µg/mL (≈ 0.0294 µM) | 1.56 µg/mL (≈ 3.53 µM) | 0.013 µg/mL (≈ 0.0294 µM) | 0.049 µg/mL (≈ 0.111 µM) | 36900 ng·h/mL | 43.1 min | 10.2 mL/min/kg
C[C@@H](O)[C@H]1C(=O)N2C(C(=O)O)=C(S[C@@H]3CN[C@H](CSc4nccc(C(F)(F)F)n4)C3)[C@H](C)[C@H]12 |  | 0.049 µg/mL (≈ 0.0971 µM) | 0.049 µg/mL (≈ 0.0971 µM) | 0.025 µg/mL (≈ 0.0495 µM) | 0.007 µg/mL (≈ 0.0139 µM) | 0.098 µg/mL (≈ 0.194 µM) | 0.781 µg/mL (≈ 1.55 µM) | 0.025 µg/mL (≈ 0.0495 µM) | 0.025 µg/mL (≈ 0.0495 µM) | 50 µg/mL (≈ 99.1 µM) | 0.025 µg/mL (≈ 0.0495 µM) | 0.098 µg/mL (≈ 0.194 µM) |  |  | 
C[C@@H](O)[C@H]1C(=O)N2C(C(=O)O)=C(S[C@@H]3CN[C@H](CSc4ncccc4O)C3)[C@H](C)[C@H]12 |  | 0.195 µg/mL (≈ 0.432 µM) | 0.195 µg/mL (≈ 0.432 µM) | 0.195 µg/mL (≈ 0.432 µM) | < 0.002 µg/mL | 0.025 µg/mL (≈ 0.0554 µM) | 6.25 µg/mL (≈ 13.8 µM) | 0.195 µg/mL (≈ 0.432 µM) | 0.195 µg/mL (≈ 0.432 µM) | 25 µg/mL (≈ 55.4 µM) | 0.098 µg/mL (≈ 0.217 µM) | 0.049 µg/mL (≈ 0.109 µM) |  |  | 
C[C@@H](O)[C@H]1C(=O)N2C(C(=O)O)=C(S[C@@H]3CN[C@H](CSc4nnnn4C)C3)[C@H](C)[C@H]12 | 88% | 0.025 µg/mL (≈ 0.0567 µM) | 0.025 µg/mL (≈ 0.0567 µM) | 0.025 µg/mL (≈ 0.0567 µM) | 0.004 µg/mL (≈ 0.00908 µM) | 0.025 µg/mL (≈ 0.0567 µM) | 0.195 µg/mL (≈ 0.443 µM) | 0.025 µg/mL (≈ 0.0567 µM) | 0.025 µg/mL (≈ 0.0567 µM) | 0.781 µg/mL (≈ 1.77 µM) | 0.025 µg/mL (≈ 0.0567 µM) | 0.049 µg/mL (≈ 0.111 µM) |  | 11 min | 
CNC(=O)c1cccnc1SC[C@@H]1C[C@H](SC2=C(C(=O)O)N3C(=O)[C@H]([C@@H](C)O)[C@H]3[C@H]2C)CN1 |  | 0.098 µg/mL (≈ 0.199 µM) | 0.098 µg/mL (≈ 0.199 µM) | 0.049 µg/mL (≈ 0.0995 µM) | < 0.002 µg/mL | < 0.049 µg/mL | 1.56 µg/mL (≈ 3.17 µM) | 0.098 µg/mL (≈ 0.199 µM) | 0.025 µg/mL (≈ 0.0507 µM) | 12.5 µg/mL (≈ 25.4 µM) | 0.049 µg/mL (≈ 0.0995 µM) | < 0.049 µg/mL |  |  | 
C[C@@H](O)[C@H]1C(=O)N2C(C(=O)O)=C(SCCNC=N)C[C@H]12.O [IMIPENEM] |  |  |  |  |  |  |  |  |  |  |  |  |  | 3.46 min | 
Cc1ccnc(SC[C@@H]2C[C@H](SC3=C(C(=O)O)N4C(=O)[C@H]([C@@H](C)O)[C@H]4[C@H]3C)CN2)n1 | 122% | 0.098 µg/mL (≈ 0.217 µM) | 0.098 µg/mL (≈ 0.217 µM) | 0.049 µg/mL (≈ 0.109 µM) | 0.007 µg/mL (≈ 0.0155 µM) | 0.049 µg/mL (≈ 0.109 µM) | 6.25 µg/mL (≈ 13.9 µM) | 0.098 µg/mL (≈ 0.217 µM) | 0.025 µg/mL (≈ 0.0555 µM) | 25 µg/mL (≈ 55.5 µM) | 0.098 µg/mL (≈ 0.217 µM) | 0.098 µg/mL (≈ 0.217 µM) |  |  | 
